Like-named read-outs stand apart in the source and are kept apart here.
Experiments:
[1] = molecular target: T1, beta-catenin/TCF4 engagement (Homo sapiens, UniProt P35222); test: Nano-BRET target engagement assay (B-cat-Halo & TCF4-Luc in HEK293 cells); assay type: cell-based; conditions: read-out: NanoBRET Abs IC50
T1 construct: expressed in transfected cells; host or cells: HEK293
T1 sequence (P35222 1-781): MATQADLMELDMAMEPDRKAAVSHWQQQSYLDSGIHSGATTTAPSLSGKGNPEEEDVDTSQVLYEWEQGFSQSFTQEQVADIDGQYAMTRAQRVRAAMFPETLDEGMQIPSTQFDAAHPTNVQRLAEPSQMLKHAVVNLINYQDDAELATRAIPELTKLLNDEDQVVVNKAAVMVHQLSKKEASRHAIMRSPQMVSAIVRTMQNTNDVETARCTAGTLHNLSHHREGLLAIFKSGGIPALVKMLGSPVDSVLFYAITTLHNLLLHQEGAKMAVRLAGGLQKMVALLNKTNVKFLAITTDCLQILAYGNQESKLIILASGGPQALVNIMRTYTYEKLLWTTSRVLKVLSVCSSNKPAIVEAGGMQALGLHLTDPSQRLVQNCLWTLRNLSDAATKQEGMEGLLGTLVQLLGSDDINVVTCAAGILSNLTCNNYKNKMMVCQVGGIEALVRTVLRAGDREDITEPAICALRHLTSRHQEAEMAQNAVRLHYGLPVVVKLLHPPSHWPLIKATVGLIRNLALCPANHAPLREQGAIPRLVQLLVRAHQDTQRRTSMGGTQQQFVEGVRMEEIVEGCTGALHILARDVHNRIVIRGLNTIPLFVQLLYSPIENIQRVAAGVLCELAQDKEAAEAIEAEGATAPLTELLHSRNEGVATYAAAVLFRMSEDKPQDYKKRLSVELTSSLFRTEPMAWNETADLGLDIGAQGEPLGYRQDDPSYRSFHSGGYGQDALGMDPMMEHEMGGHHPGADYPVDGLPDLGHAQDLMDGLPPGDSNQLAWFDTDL

[2] = molecular target: T2, full-length beta-Catenin (Uniprot ID P35222) (Homo sapiens, UniProt P35222); test: Fluorescence polarization IC50 (beta-catenin / 5FAM-TCF4 10-53 competition); assay type: binding; conditions: fluorescence polarization; read-out: beta-Catenin FP IC50
T2 construct: 10 nM full-length beta-Catenin (Uniprot ID P35222)
T2 sequence (P35222 1-781): T1 sequence (P35222 1-781)

SMILES | IC50 [1] [nM] | IC50 [2] [nM] | IC50 ([1]; absolute IC50) [nM]
CC(=O)N1CCC[C@]12CC=CCCCC1(CCCC=CCCCOC(=O)N3CC[C@@](C(=O)N[C@@H](Cc4ccsc4)C(=O)N[C@@H](Cc4csc5ccccc45)C(=O)N[C@@H](CCC(N)=O)C(N)=O)(C3)NC(=O)[C@H](CCC(=O)N3CCC(N4CCCCC4)CC3)NC(=O)[C@H](Cc3ccccc3)NC(=O)[C@H](C)NC(=O)[C@H](C)NC(=O)[C@H](CN(CC(=O)O)CC(F)(F)F)NC(=O)[C@H](CC(=O)O)NC1=O)NC(=O)[C@H](CC(C)(C)C)NC(=O)[C@H](CC(=O)O)NC2=O (stereo partly drawn) [I-1940, Ac-PL3-Asp-Npg-B5-Asp-TfeGA-Ala-Ala-Phe-[4Pippip]GlnR-PyrS2-3Thi-BztA-Gln-NH2] | 15400 | 6 | 
CC(=O)N1CCC[C@]12CC=CCCCC1(CCCC=CCCCOC(=O)N3CC[C@@](C(=O)N[C@@H](Cc4ccsc4)C(=O)N[C@@H](Cc4csc5ccccc45)C(=O)N[C@@H](CCC(N)=O)C(N)=O)(C3)NC(=O)[C@H](CC(C)C)NC(=O)[C@H](Cc3ccccc3)NC(=O)[C@H](CCCN3CCOCC3)NC(=O)[C@H](C)NC(=O)[C@H](CC(=O)O)NC(=O)[C@H](CC(=O)O)NC1=O)NC(=O)[C@H](CC(C)(C)C)NC(=O)[C@H](CC(=O)O)NC2=O (stereo partly drawn) [I-1501, Ac-PL3-Asp-Npg-B5-Asp-Asp-Ala-MorphNva-Phe-Leu-PyrS2-3Thi-BztA-Gln-NH2] |  | 46 | > 20000
COCCC(=O)N1CCC[C@]12CC=CCCCC1(CCCC=CCCCOC(=O)N3CC[C@@](C(=O)N[C@@H](Cc4ccccc4Cl)C(=O)N[C@@H](Cc4csc5ccccc45)C(=O)N[C@@H](C(N)=O)[C@H](C)O)(C3)NC(=O)[C@H](CC(N)=O)NC(=O)[C@H](Cc3ccccc3)NC(=O)[C@H](C)NC(=O)[C@H](C)NC(=O)[C@H](CC(=O)O)NC(=O)[C@H](CC(=O)O)NC1=O)NC(=O)[C@H](CC(C)(C)C)NC(=O)[C@H](CC(=O)O)NC2=O (stereo partly drawn) [I-1259, MeOPr-PL3-Asp-Npg-B5-Asp-Asp-Ala-Ala-Phe-Asn-PyrS2-2C1F-BztA-dThr-NH2] |  | 10 | 18100
CC(=O)N1CCC[C@]12CC=CCCCC1(CCCC=CCCCOC(=O)N3CC[C@@](C(=O)N[C@@H](Cc4ccsc4)C(=O)N[C@@H](Cc4cccc5ccccc45)C(=O)N[C@@H](CCC(N)=O)C(N)=O)(C3)NC(=O)[C@H]([C@@H](C)O)NC(=O)[C@H](Cc3ccccc3)NC(=O)[C@H](C)NC(=O)[C@H](C)NC(=O)[C@H](CC(=O)O)NC(=O)[C@H](CC(=O)O)NC1=O)NC(=O)[C@H](CC(C)(C)C)NC(=O)[C@H](CC(=O)O)NC2=O (stereo partly drawn) [I-1232, Ac-PL3-Asp-Npg-B5-Asp-Asp-Ala-Ala-Phe-Thr-PyrS2-3Thi-1NapA-Gln-NH2] |  | 31 | 43300
CCNC(=O)CC[C@H](NC(=O)[C@H](Cc1csc2ccccc12)NC(=O)[C@H](Cc1ccsc1)NC(=O)[C@]12CCN(C1)C(=O)OCCCC=CCCCC1(CCCC=CC[C@]3(CCCN3C(C)=O)C(=O)N[C@@H](CC(=O)O)C(=O)N[C@@H](CC(C)(C)C)C(=O)N1)C(=O)N[C@@H](CC(=O)O)C(=O)N[C@@H](CN(CC(=O)O)CC(F)(F)F)C(=O)N[C@@H](C)C(=O)N[C@@H](C)C(=O)N[C@@H](Cc1ccccc1)C(=O)N[C@@H](CC(C)C)C(=O)N2)C(=O)N[C@@H](C)C(N)=O (stereo partly drawn) [I-2471, Ac-PL3-Asp-Npg-B5-Asp-TfeGA-Ala-Ala-Phe-Leu-PyrS2-3Thi-BztA-[NHEt]GlnR-Ala-NH2] |  | 14 | 2100
CC(=O)N1CCC[C@]12CC=CCCCC1(CCCC=CCCCOC(=O)N3CC[C@@](C(=O)N[C@@H](Cc4ccsc4)C(=O)N[C@@H](Cc4csc5ccccc45)C(=O)N[C@H](C(N)=O)C(C)C)(C3)NC(=O)[C@H](CC(C)C)NC(=O)[C@H](Cc3ccccc3)NC(=O)[C@H](C)NC(=O)[C@H](CCC(N)=O)NC(=O)[C@H](Cc3cccc(C(=O)O)c3)NC(=O)[C@H](CC(=O)O)NC1=O)NC(=O)[C@H](CC(C)(C)C)NC(=O)[C@H](CC(=O)O)NC2=O (stereo partly drawn) [I-2055, Ac-PL3-Asp-Npg-B5-Asp-3COOHF-Gln-Ala-Phe-Leu-PyrS2-3Thi-BztA-Val-NH2] | 10500 | 13 | 
CC(=O)N1CCC[C@]12CC=CCCCC1(CCCC=CCCCOC(=O)N3CC[C@@](C(=O)N[C@@H](Cc4ccsc4)C(=O)N[C@@H](Cc4csc5ccccc45)C(=O)N[C@@H](CCC(N)=O)C(N)=O)(C3)NC(=O)[C@H](CCO)NC(=O)[C@H](Cc3ccccc3)NC(=O)[C@H](C)NC(=O)[C@H](C)NC(=O)[C@H](Cc3ccc(O)cc3)NC(=O)[C@H](CC(=O)O)NC1=O)NC(=O)[C@H](CC(C)(C)C)NC(=O)[C@H](CC(=O)O)NC2=O (stereo partly drawn) [I-1783, Ac-PL3-Asp-Npg-B5-Asp-Tyr-Ala-Ala-Phe-Hse-PyrS2-3Thi-BztA-Gln-NH2] |  | 101 | > 20000
CC(=O)N1CCC[C@]12CC=CCCCC1(CCCC=CCCCOC(=O)N3CC[C@@](C(=O)N[C@@H](Cc4cccnc4)C(=O)N[C@@H](Cc4csc5ccccc45)C(=O)N[C@@H](CCC(N)=O)C(N)=O)(C3)NC(=O)[C@H](CC(C)C)NC(=O)[C@H](Cc3ccccc3)NC(=O)[C@H](C)NC(=O)[C@H](C)NC(=O)[C@H](CN(CC(=O)O)CC(F)(F)F)NC(=O)[C@H](CC(=O)O)NC1=O)NC(=O)[C@H](CC(C)(C)C)NC(=O)[C@H](CC(=O)O)NC2=O (stereo partly drawn) [I-1701, Ac-PL3-Asp-Npg-B5-Asp-TfeGA-Ala-Ala-Phe-Leu-PyrS2-3PyrA-BztA-Gln-NH2] |  | 25 | 24800
CC(=O)N1CCC[C@]12CC=CCCCC1(CCCC=CCCCOC(=O)N3CC[C@@](C(=O)N[C@@H](Cc4ccccc4)C(=O)N[C@@H](Cc4csc5ccccc45)C(=O)N[C@@H](CCCCN)C(N)=O)(C3)NC(=O)[C@H](CC(C)C)NC(=O)[C@H](Cc3ccccc3)NC(=O)[C@H](C)NC(=O)[C@H](CCC(N)=O)NC(=O)[C@H](CCC(N)=O)NC(=O)[C@H](CC(=O)O)NC1=O)NC(=O)[C@H](CC1CCCCC1)NC(=O)[C@H](CC(N)=O)NC2=O (stereo partly drawn) [I-2421, Ac-PL3-Asn-Cha-B5-Asp-Gln-Gln-Ala-Phe-Leu-PyrS2-Phe-BztA-Lys-NH2] |  | 145 | > 20000
CC(=O)N1CCC[C@]12CC=CCCCC1(CCCC=CCCCOC(=O)N3CC[C@@](C(=O)N[C@@H](Cc4ccccc4Cl)C(=O)N[C@@H](Cc4csc5ccccc45)C(=O)N[C@@H](CO)C(N)=O)(C3)NC(=O)[C@H](CC(C)C)NC(=O)[C@H](Cc3ccccc3)NC(=O)[C@H](C)NC(=O)[C@H](C)NC(=O)[C@H](Cc3cccc(C(=O)O)c3)NC(=O)[C@H](CC(=O)O)NC1=O)NC(=O)[C@H](CC(C)(C)C)NC(=O)[C@H](CC(N)=O)NC2=O (stereo partly drawn) [I-1853, Ac-PL3-Asn-Npg-B5-Asp-3COOHF-Ala-Ala-Phe-Leu-PyrS2-2C1F-BztA-Ser-NH2] | 16300 | 114 | 
CC(=O)N1CCC[C@]12CC=CCCCC1(CCCC=CCCCOC(=O)N3CC[C@@](C(=O)N[C@@H](Cc4ccccc4Cl)C(=O)N[C@@H](Cc4csc5ccccc45)C(=O)N[C@H](C(N)=O)C(C)C)(C3)NC(=O)[C@H](CC(N)=O)NC(=O)[C@H](Cc3ccccc3)NC(=O)[C@H](C)NC(=O)[C@H](C)NC(=O)[C@H](Cc3cccc(C(=O)O)c3)NC(=O)[C@H](CC(=O)O)NC1=O)NC(=O)[C@H](CC(C)(C)C)NC(=O)[C@H](CC(=O)O)NC2=O (stereo partly drawn) [I-2032, Ac-PL3-Asp-Npg-B5-Asp-3COOHF-Ala-Ala-Phe-Asn-PyrS2-2C1F-BztA-Val-NH2] | 20900 | 16 | 
CC(=O)N1CCC[C@]12CC=CCCCC1(CCCC=CCCCOC(=O)N3CC[C@@](C(=O)N[C@@H](Cc4ccsc4)C(=O)N[C@@H](Cc4csc5ccccc45)C(=O)N[C@@H](CCC(N)=O)C(N)=O)(C3)NC(=O)[C@H](CCC(=O)N3CCN(CCCN(C)C)CC3)NC(=O)[C@H](Cc3ccccc3)NC(=O)[C@H](C)NC(=O)[C@H](C)NC(=O)[C@H](CN(CC(=O)O)CC(F)(F)F)NC(=O)[C@H](CC(=O)O)NC1=O)NC(=O)[C@H](CC(C)(C)C)NC(=O)[C@H](CC(=O)O)NC2=O (stereo partly drawn) [I-1936, Ac-PL3-Asp-Npg-B5-Asp-TfeGA-Ala-Ala-Phe-[Me2NPrPip]GlnR-PyrS2-3Thi-BztA-Gln-NH2] | 15700 | 10 | 
CC(=O)N1CCC[C@]12CC=CCCCC1(CCCC=CCCCOC(=O)N3CC[C@@](C(=O)N[C@@H](Cc4ccccc4Cl)C(=O)N[C@@H](Cc4csc5ccccc45)C(=O)N[C@@H](CCC(N)=O)C(N)=O)(C3)NC(=O)[C@H](CO)NC(=O)[C@H](Cc3ccccc3)NC(=O)[C@H](C)NC(=O)[C@H](CC(C)C)NC(=O)[C@H](CC(=O)O)NC(=O)[C@H](CC(=O)O)NC1=O)NC(=O)[C@H](Cc1ccccc1)NC(=O)[C@H](CC(=O)O)NC2=O (stereo partly drawn) [I-1153, Ac-PL3-Asp-Phe-B5-Asp-Asp-Leu-Ala-Phe-Ser-PyrS2-2C1F-BztA-Gln-NH2] |  | 12 | > 20000
